Results published in patent publication US6727390B2, “Fluorous phosphines and phosphine oxides” (University of Pittsburgh, priority 2001, dated 2004).

Legend:
[1] = Liquid-liquid partition coefficients between FC-72 and organic solvents (partitioning followed by HPLC analysis); format: physicochemical; conditions: room temperature; for Partition coefficient FC-72/THF (P = cfluorous phase/corganic phase): 50/50 (v/v) FC-72/THF; for Partition coefficient FC-72/methanol (P = cfluorous phase/corganic phase): 50/50 (v/v) FC-72/methanol; for Partition coefficient FC-72/toluene (P = cfluorous phase/corganic phase): 50/50 (v/v) FC-72/toluene
Procedure: Liquid-liquid partition coefficients for all six phosphines between FC-72 and three organic solvents (methanol, THF, and toluene) were also measured. The procedure involved a simple partitioning followed by HPLC analysis.

Compound | Partition coefficient FC-72/THF (P = cfluorous phase/corganic phase) [1] | Partition coefficient FC-72/methanol (P = cfluorous phase/corganic phase) [1] | Partition coefficient FC-72/toluene (P = cfluorous phase/corganic phase) [1] | melting point [°C]
FC(F)(F)C(F)(F)C(F)(F)C(F)(F)C(F)(F)C(F)(F)CCc1ccc(P(c2ccc(CCC(F)(F)C(F)(F)C(F)(F)C(F)(F)C(F)(F)C(F)(F)F)cc2)c2ccc(CCC(F)(F)C(F)(F)C(F)(F)C(F)(F)C(F)(F)C(F)(F)F)cc2)cc1 [Compound 1a, Tris-[4-(3,3,4,4,5,5,6,6,7,7,8,8,8-tridecafluorooctyl)phenyl]phosphane] | 0.08 | 30.03 | 0.75 | 49.9 to 52.4
FC(F)(F)C(F)(F)C(F)(F)C(F)(F)C(F)(F)C(F)(F)CCc1ccc(P(c2ccccc2)c2ccc(CCC(F)(F)C(F)(F)C(F)(F)C(F)(F)C(F)(F)C(F)(F)F)cc2)cc1 [Compound 1b, Phenyl-bis-[4-(3,3,4,4,5,5,6,6,7,7,8,8,8-tridecafluorooctyl)phenyl]phosphane] | 0.05 | 1.86 | 0.05 | 42.1 to 43.1
FC(F)(F)C(F)(F)C(F)(F)C(F)(F)C(F)(F)C(F)(F)CCc1ccc(P(c2ccccc2)c2ccccc2)cc1 [Compound 1c, Diphenyl-[4-(3,3,4,4,5,5,6,6,7,7,8,8,8-tridecafluorooctyl)phenyl]phosphane] | 0.02 | 0.12 | 0.05 | 
FC(F)(F)C(F)(F)C(F)(F)C(Cc1ccc(P(c2ccc(CC(C(F)(F)F)(C(F)(F)F)C(F)(F)C(F)(F)C(F)(F)F)cc2)c2ccc(CC(C(F)(F)F)(C(F)(F)F)C(F)(F)C(F)(F)C(F)(F)F)cc2)cc1)(C(F)(F)F)C(F)(F)F [Compound 5a, Tris-[4-(3,3,4,4,5,5,5-heptafluoro-2,2-bis-trifluoromethylpentyl)phenyl]phosphane] | 0.51 | 18.48 | 6.84 | 
FC(F)(F)C(F)(F)C(F)(F)C(Cc1ccc(P(c2ccccc2)c2ccc(CC(C(F)(F)F)(C(F)(F)F)C(F)(F)C(F)(F)C(F)(F)F)cc2)cc1)(C(F)(F)F)C(F)(F)F [Compound 5b, Phenyl-bis-[4-(3,3,4,4,5,5,5-heptafluoro-2,2-bis-rifluoromethylpentyl)phenyl]phosphane] | 1.05 | 3.34 | 0.18 | 
FC(F)(F)C(F)(F)C(F)(F)C(Cc1ccc(P(c2ccccc2)c2ccccc2)cc1)(C(F)(F)F)C(F)(F)F [Compound 5c, Diphenyl-[4-(3,3,4,4,5,5,5-heptafluoro-2,2-bis-trifluoromethylpentyl)phenyl]phosphane] | 0.01 | 0.09 | 0.12 | 
